Tests used:
[1] = test system: EpCAM-YFP cleavage in HEK293 cells; test: EpIC formation (EpCAM cleavage) by immunoblot in HEK293 cells transiently transfected with EpCAM-YFP; format: cell-based, human; conditions: for EpIC cleavage / release of EpIC-YFP from EpCAM-YFP: single cells incubated with recombinant EpEX, monitored over time
Source text: In the beginning of the study nothing was known about the molecular mechanisms underlying the signalling mechanisms of EpCAM. In order to test for potential EpCAM cleavage, full-length EpCAM was C-terminally fused to the yellow fluorescence protein to generate EpCAM-YFP. Similarly, a potential intracellular domain of EpCAM (EpIC), starting with serine^289, was fused to the YFP moiety to generate EpIC-YFP. For this purpose, EpCAM or EpIC cDNA sequences were cloned into peYFP-N1 (BD Biosciences, Heidelberg Germany). […] HEK293 cells are human embryonic kidney cells, which were cultured in standard DMEM containing 10% fetal calf serum and passaged three times per week. Transfection was carried out with MATra reagent (IBA, Göttingen, Germany) in six-well plates (5×10^5 cells/well) according to the manufacturer's protocol. One microgram of plasmid DNA was transfected per sample for a time period of 24 h. For immunoblot analysis, 1×10^6 cells were lysed in 100 μl lysis buffer (TBS/1% triton and protease inhibitors). Lysates were pre-cleared upon centrifugation (13.000 rpm, 4° C., 10 min), separated upon SDS-PAGE, and transferred onto PVDF membranes (Millipore, Bedford, US). The expression of both proteins was assessed upon immunobloting with EpIC- (A20 or 1144, which are α-EpIC antibodies; Santa Cruz Biotech, USA and Epitomics, USA) and YFP-specific antibodies in combination with horseradish peroxidase (HRP)-conjugated secondary antibodies and the ECL reagent (Amersham Biosciences).
The interaction of EpCAM with PS-2 and TACE indicates an involvement of these proteases in the proteolytic processing of EpCAM. To confirm this, HEK293 cells were transiently transfected with EpCAM-YFP expression plasmid. Briefly, 5×10^5 cells were plated in 6-well plates and transiently transfected 24 h later with 1 μg plasmid DNA using the MATra transfection reagent (IBA, Göttingen, Germany—1 μl reagent per 1 μg DNA). Transiently transfected HEK293 cells were treated with 60 nM of the γ-secretase inhibitor Compound E (Alexis Biochemicals, Germany) over a time period of two days. Proteins were separated by SDS-PAGE (30 mA/gel, 10% polyacrylamid gel), transferred onto PVDF membranes (Millipore, Bedford, US). Cleavage of EpIC was assessed with an EpIC-specific antibody (1144, Epitomics, USA) in a time kinetic. Treatment of transfected cells with compound E led to the reduced formation of EpIC along with the accumulation of intermediate cleavage products of EpCAM with a molecular weight of 33-37 kDa (FIG. 2C). These intermediates most likely represent EpCAM molecules lacking the ectodomain but which were not cleaved at the intracellular site. […] Thus, inhibition of presenilins has an impact on EpCAM signaling capacity.
(§1) Next, HEK293 cells were transiently transfected with EpCAM-YFP, treated with 40 μM TACE inhibitor TAPI-2 (Biomol, Germany) and EpIC formation monitored as described above for the inhibition of presenilin-2. […] Finally, the effect of TACE inhibition on the generation of the EpCAM ectodomain was assessed. HEK293-EpCAM cells were cultured two days in the presence or absence of TAPI-2 (40 μM) and cell-free conditioned supernatants were collected upon centrifugation (13,000 rpm, 10 min, 4° C.). Thereafter, immunoprecipitations were conducted with antibodies specific for EpEX as described above. […] In all cases, EpEX was devoid of the EpIC domain as it no longer reacted with the EpIC-specific antibody. […]

[2] = test system: EpCAM ectodomain (EpEX) shedding in HEK293-EpCAM cells; test: EpCAM ectodomain shedding, immunoprecipitation from conditioned supernatant of HEK293-EpCAM cells; format: cell-based, human; conditions: TAPI-2 40 μM, two days, versus vehicle diluent
Procedure: In a next step, we assessed the existence of a shed ectodomain of EpCAM. Immunoprecipitation was performed with conditioned cell-free supernatants of HEK293-EpCAM and HEK293-control transfectants using antibodies specific for the extracellular (EpEC), i.e. HO.3 (an α-EpEC antibody; kind gift from Dr. Horst Lindhofer, TrionPharma, Munich, Germany) and intracellular (EpIC) domain of EpCAM (see above) essentially as described above. For a positive control, immunoprecipitation was performed in parallel with whole cell lysate of HEK293-EpCAM cells.
as §1

[3] = test system: EpEX shedding in FaDu cells; test: EpEX shedding by FaDu cells expressing endogenous EpCAM; format: cell-based, human; conditions: treated with TAPI-2
Procedure: The soluble ectodomain EpEX was detected in cell-free supernatants FaDu cells (Experiment was carried out as described for HEK293 cells).
Next, HEK293 cells were transiently transfected with EpCAM-YFP, treated with 40 μM TACE inhibitor TAPI-2 (Biomol, Germany) and EpIC formation monitored as described above for the inhibition of presenilin-2. […] Finally, the effect of TACE inhibition on the generation of the EpCAM ectodomain was assessed. HEK293-EpCAM cells were cultured two days in the presence or absence of TAPI-2 (40 μM) and cell-free conditioned supernatants were collected upon centrifugation (13,000 rpm, 10 min, 4° C.). Thereafter, immunoprecipitations were conducted with antibodies specific for EpEX as described above. […] In all cases, EpEX was devoid of the EpIC domain as it no longer reacted with the EpIC-specific antibody. Ectodomain shedding may thus be a basic requirement for the cleavage of EpIC, as is the case for certain other receptors (Medina and Dotti, 2003, Cell Signal 15: 829-841).

[4] = test system: TCF/Lef-responsive promoters in HEK293 cells; format: cell-based, human
[5] = target: EpCAM (epithelial cell adhesion molecule), full-length (human) (UniProt P16422); test: cell-based or functional assay
[6] = test system: NIH3T3 transfectants that ectopically express EpCAM; test: EpCAM-mediated growth transformation (cell numbers), NIH3T3 transfectants ectopically expressing EpCAM; format: cell-based, murine
Procedure: (§2) We further investigated the significance of PS activity on EpCAM-mediated growth transformation of two cell types. Murine NIH3T3 transfectants (which were grown and transfected as described in Example 1) that ectopically express EpCAM, and FaDu carcinoma cells that naturally express EpCAM were treated with the DAPT over 4 days. […] Noteworthy, besides its capacity to rescue cells from DAPT-mediated growth inhibition, the expression of EpIC-YFP did even further increase proliferation of EpCAM-expressing FaDu carcinoma cells.

[7] = test system: EpCAM-negative NIH3T3 control cells; test: Proliferation of EpCAM-negative NIH3T3 control cells; format: cell-based, murine; conditions: treatment with DAPT
Procedure: as §2

FaDu carcinoma cells = test: Proliferation (cell numbers) of FaDu carcinoma cells; format: cell-based, human
Procedure: as §2, with “cells. Also, siRNA-mediated TACE reduction of proliferation of FaDu cells was tested. […] Modest effects may be explained by the comparatively low transfection efficiency of this cell line (FIG. 3A).” for “cells.”

[8] = target: T1, EpCAM (epithelial cell adhesion molecule), full-length (human, UniProt P16422 24-314); test: cell-based or functional assay
T1 sequence (looked up): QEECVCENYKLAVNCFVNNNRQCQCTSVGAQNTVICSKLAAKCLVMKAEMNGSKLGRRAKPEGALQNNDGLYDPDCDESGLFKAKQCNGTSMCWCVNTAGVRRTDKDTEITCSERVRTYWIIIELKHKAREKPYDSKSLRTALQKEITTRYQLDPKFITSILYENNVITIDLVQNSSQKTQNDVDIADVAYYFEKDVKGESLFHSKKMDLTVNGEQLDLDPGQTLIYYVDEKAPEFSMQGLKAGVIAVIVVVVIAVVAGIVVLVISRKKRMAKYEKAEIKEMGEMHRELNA

[9] = test system: endogenous EpCAM in FaDu cells; test: EpIC retention in the plasma membrane of isolated FaDu cells treated with EpEX; format: cell-based, human
Procedure: In search for inducers of EpCAM signaling, we investigated the possibility that EpEX serves as a soluble ligand for EpCAM. EpCAM was described as a homophilic adhesion molecule, which can confer intra- and intercellular adhesion via two distinct, cystein-rich extracellular domains. […] HEK293 cells were plated as single cells, transfected with EpCAM-YFP expression vector, and incubated with recombinant EpEX. EpIC formation was then monitored over time by immunoblotting (see above). […] This observation was further corroborated in carcinoma cells with respect to the cleavage of endogenous EpCAM molecules. […] In the absence of EpEX in the culture medium, a mean of 74% of single cells retained EpIC in the plasma membrane, while only 39% of the cells did so following treatment with EpEX.

[10] = DAPT over 4 days, data not shown
[11] = DAPT plus EpIC-YFP expression (rescue)

CC(C)C[C@H](CC(=O)NO)C(=O)N[C@H](C(=O)N[C@@H](C)C(=O)NCCN)C(C)(C)C [TAPI-2]
EpIC cleavage ([1]; 40 μM TAPI-2): substantial reduction of EpIC cleavage
c-Myc induction ([1]; 40 μM TAPI-2): decrease in c-Myc induction
formation of EpCAM intermediates ([1]; 40 μM TAPI-2): no effect whatsoever
ectodomain shedding in the cell culture supernatant [2]: strong reduction of ectodomain shedding
EpEX shedding [3]: significant reduction of EpEX shedding

[Cl-].[Li+] [lithium chloride]
mean induction of TCF/Lef [4]: 2.5 fold

recombinant EpCAM extracellular domain EpEX (EpEXrec) (from UniProt P16422 24-265) (ligand)
single FaDu cells retaining EpIC in the plasma membrane, following treatment with EpEX [5]: 39%
single FaDu cells retaining EpIC in the plasma membrane, in the absence of EpEX (control) [5]: 74%

C[C@H](NC(=O)Cc1cc(F)cc(F)c1)C(=O)N[C@H](C(=O)OC(C)(C)C)c1ccccc1 [DAPT, N—[N-(3,5-difluorophenacetyl)-L-alanyl]-(S)-phenyl-glycine t-butyl ester]
EpCAM-mediated growth transformation (cell numbers) [6, 10]: substantially inhibited
cell numbers under DAPT with expression of EpIC-YFP [6, 11]: restored cell numbers to the level of untreated cells
cell proliferation [7]: remained unaffected
EpCAM-mediated growth transformation (cell numbers) (FaDu carcinoma cells; [10]): substantially inhibited
cell numbers under DAPT with expression of EpIC-YFP (FaDu carcinoma cells; [11]): restored cell numbers to the level of untreated cells

B1: four and a half LIM domain protein FHL2 (other, human, UniProt Q14192 1-279, looked up)
chain: MTERFDCHHCNESLFGKKYILREESPYCVVCFETLFANTCEECGKPIGCDCKDLSYKDRHWHEACFHCSQCRNSLVDKPFAAKEDQLLCTDCYSNEYSSKCQECKKTIMPGTRKMEYKGSSWHETCFICHRCQQPIGTKSFIPKDNQNFCVPCYEKQHAMQCVQCKKPITTGGVTYREQPWHKECFVCTACRKQLSGQRFTARDDFAYCLNCFCDLYAKKCAGCTNPISGLGGTKYISFEERQWHNDCFNCKKCSLSLVGRGFLTERDDILCPDCGKDI
cell numbers at day five of treatment with EpCAM- or FHL2-specific siRNA against control siRNA [8]: 2.5 fold lower

B2: EpEXrec: recombinant EpCAM extracellular domain EpEX (protein)
chain: QEECVCENYKLAVNCFVNNNRQCQCTSVGAQNTVICSKLAAKCLVMKAEMNGSKLGRRAKPEGALQNNDGLYDPDCDESGLFKAKQCNGTSMCWCVNTAGVRRTDKDTEITCSERVRTYWIIIELKHKAREKPYDSKSLRTALQKEITTRYQLDPKFITSILYENNVITIDLVQNSSQKTQNDVDIADVAYYFEKDVKGESLFHSKKMDLTVNGEQLDLDPGQTLIYYVDEKAPEFSMQGLK
EpIC cleavage / release of EpIC-YFP from EpCAM-YFP [1]: time-dependent induction of EpIC cleavage
single cells that retained EpIC in the plasma membrane (mean) ([9]; after treatment with EpEX, 74% in the absence of EpEX): 39%
EpIC immunoreactivity at the site of the plasma membrane ([9]; isolated FaDu cells treated with EpEX): significant loss

B3: heat-treated EpEX: heat-treated recombinant EpCAM ectodomain, used as inactive control (protein, UniProt P16422 24-265, looked up)
extracellular domain: QEECVCENYKLAVNCFVNNNRQCQCTSVGAQNTVICSKLAAKCLVMKAEMNGSKLGRRAKPEGALQNNDGLYDPDCDESGLFKAKQCNGTSMCWCVNTAGVRRTDKDTEITCSERVRTYWIIIELKHKAREKPYDSKSLRTALQKEITTRYQLDPKFITSILYENNVITIDLVQNSSQKTQNDVDIADVAYYFEKDVKGESLFHSKKMDLTVNGEQLDLDPGQTLIYYVDEKAPEFSMQGLK
modifications: extracellular domain heat-treated
EpIC cleavage / release of EpIC-YFP from EpCAM-YFP [1]: did not result in a release of EpIC-YFP

Source: patent US20100226922A1, “SPECIFIC PROTEASE INHIBITORS AND THEIR USE IN CANCER THERAPY” (priority 2006, published 2010)
